Source: ChEMBL document CHEMBL1909294, “Translating clinical findings into knowledge in drug safety evaluation--drug induced liver injury prediction system (DILIps)” (PLoS Comput Biol, 2011)
*1 amine or outer side, *2 acyl side, *3 side chain or, on linkers, in order; H or OH if unused. Where a SMILES comes first, the peptide text is derived from it. Bridges are numbered along the chain shown (N, C = ends). [ ]: non-standard residue; d: D form. The star is where a group is joined. ξ: configuration not given here. X2 = N=C1NCCC([C@H](N[*:1])C(=O)[*:2])N1; ΔAla(Z-3-ureido) = NC(=O)N/C=C(\N)C(=O)O; ξβ3hOrn = NCCCC(N)CC(=O)*; Dap = NC[C@H](N)C(=O)O

Tests used:
[1] = tested on: Hepatotoxicity;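 on HepSE bilirubinemia: bilirubinemia hepatic side effect score drawn from the DILIps training data, a prediction system for drug-induced liver injury; call rule not given here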;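 on HepSE cholecystitis: Cholecystitis-related hepatic side effect score drawn from the DILIps (drug-induced liver injury prediction) training data set; call rule not given here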;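 on HepSE cholelithiasis: hepatic side effect score for cholelithiasis, drawn from the DILIps training data for predicting drug-induced liver injury; call rule not given here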;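 on HepSE cirrhosis: cirrhosis hepatic side effect score taken from the DILIps (drug-induced liver injury prediction) training set; call rule not given here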;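 on HepSE elevated liver function tests: hepatic side effect score for raised liver function tests, as recorded in the DILIps training set used for predicting drug-induced liver injury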; on HepSE hepatic failure: call rule not given here;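 on HepSE hepatomegaly: hepatic side effect score for hepatomegaly, taken from the training set of the DILIps drug-induced liver injury prediction system; call rule not given here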
[2] = tested on: Hepatotoxicity; remark: listed apart in the source;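 on HepSE bilirubinemia: bilirubinemia hepatic side effect score drawn from the DILIps training data, a prediction system for drug-induced liver injury; call rule not given here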;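 on HepSE cholecystitis: Cholecystitis-related hepatic side effect score drawn from the DILIps (drug-induced liver injury prediction) training data set; call rule not given here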;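 on HepSE cholelithiasis: hepatic side effect score for cholelithiasis, drawn from the DILIps training data for predicting drug-induced liver injury; call rule not given here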;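 on HepSE cirrhosis: cirrhosis hepatic side effect score taken from the DILIps (drug-induced liver injury prediction) training set; call rule not given here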;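 on HepSE elevated liver function tests: hepatic side effect score for raised liver function tests, as recorded in the DILIps training set used for predicting drug-induced liver injury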; on HepSE hepatic failure: call rule not given here;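 on HepSE hepatomegaly: hepatic side effect score for hepatomegaly, taken from the training set of the DILIps drug-induced liver injury prediction system; call rule not given here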
[3] = tested on: Hepatotoxicity; remark: listed apart in the source;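 on HepSE bilirubinemia: bilirubinemia hepatic side effect score drawn from the DILIps training data, a prediction system for drug-induced liver injury; call rule not given here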;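 on HepSE cholecystitis: Cholecystitis-related hepatic side effect score drawn from the DILIps (drug-induced liver injury prediction) training data set; call rule not given here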;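 on HepSE cholelithiasis: hepatic side effect score for cholelithiasis, drawn from the DILIps training data for predicting drug-induced liver injury; call rule not given here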;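 on HepSE cirrhosis: cirrhosis hepatic side effect score taken from the DILIps (drug-induced liver injury prediction) training set; call rule not given here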;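 on HepSE elevated liver function tests: hepatic side effect score for raised liver function tests, as recorded in the DILIps training set used for predicting drug-induced liver injury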; on HepSE hepatic failure: call rule not given here
[4] = tested on: Hepatotoxicity; remark: listed apart in the source;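 on HepSE bilirubinemia: bilirubinemia hepatic side effect score drawn from the DILIps training data, a prediction system for drug-induced liver injury; call rule not given here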;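 on HepSE cholecystitis: Cholecystitis-related hepatic side effect score drawn from the DILIps (drug-induced liver injury prediction) training data set; call rule not given here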;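 on HepSE cholelithiasis: hepatic side effect score for cholelithiasis, drawn from the DILIps training data for predicting drug-induced liver injury; call rule not given here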;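 on HepSE cirrhosis: cirrhosis hepatic side effect score taken from the DILIps (drug-induced liver injury prediction) training set; call rule not given here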;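 on HepSE elevated liver function tests: hepatic side effect score for raised liver function tests, as recorded in the DILIps training set used for predicting drug-induced liver injury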; on HepSE hepatic failure: call rule not given here
[5] = tested on: Hepatotoxicity; remark: listed apart in the source; on HepSE hepatic failure: call rule not given here
[6] = tested on: Hepatotoxicity; remark: listed apart in the source; on HepSE hepatic failure: call rule not given here
[7] = tested on: Hepatotoxicity; remark: listed apart in the source
[8] = tested on: Hepatotoxicity; remark: listed apart in the source
[9] = tested on: Hepatotoxicity; remark: listed apart in the source
[10] = tested on: Hepatotoxicity; remark: listed apart in the source
[11] = tested on: Hepatotoxicity; remark: listed apart in the source
[12] = tested on: Hepatotoxicity; remark: listed apart in the source
[13] = tested on: Hepatotoxicity; remark: listed apart in the source
[14] = tested on: Hepatotoxicity; remark: listed apart in the source

Row | Structure (SMILES) | HepSE_bilirubinemia [1] | HepSE_cholecystitis [2] | HepSE_cholelithiasis [3] | HepSE_cirrhosis [4] | HepSE_elevated liver function tests [5] | HepSE_hepatic failure [6] | HepSE_hepatic necrosis [7] | HepSE_hepatitis [8] | HepSE_hepatomegaly [9] | HepSE_jaundice [10] | HepSE_liver disease [11] | HepSE_liver fatty [12] | HepSE_liver function tests abnormal [13] | HepSE_Combined Scores [14]
1 | CCCCCOC(=O)Nc1nc(=O)n([C@@H]2O[C@H](C)[C@@H](O)[C@H]2O)cc1F [CAPECITABINE] | 1 | 0 | 0 | 0 | 0 | 1 | 0 | 1 | 1 | 1 | 0 | 1 | 1 | 7
2 | C[C@@H]1NC(=O)[C@@H](N)CNC(=O)[C@H](C2CCNC(=N)N2)NC(=O)/C(=C/NC(N)=O)NC(=O)[C@H](CNC(=O)CC(N)CCCN)NC1=O.N=C1NCCC([C@@H]2NC(=O)/C(=C/NC(N)=O)NC(=O)[C@H](CNC(=O)CC(N)CCCN)NC(=O)[C@H](CO)NC(=O)[C@@H](N)CNC2=O)N1 (stereo partly drawn) [CAPREOMYCIN] (H-[Dap]S[Dap](ξβ3hOrn)[ΔAla(Z-3-ureido)][X2]; lactam 1-C) | 0 | 0 | 0 | 0 | 0 | 0 | 0 | 0 | 0 | 0 | 1 | 0 | 0 | 1
3 | C[C@H](CS)C(=O)N1CCC[C@H]1C(=O)O [CAPTOPRIL] | 0 | 0 | 0 | 0 | 0 | 0 | 0 | 1 | 0 | 1 | 0 | 0 | 0 | 2
4 | C[N+](C)(C)CCOC(N)=O.[Cl-] [CARBACHOL] | 0 | 0 | 0 | 0 | 0 | 0 | 0 | 0 | 0 | 0 | 0 | 0 | 0 | 0
5 | NC(=O)N1c2ccccc2C=Cc2ccccc21 [CARBAMAZEPINE] | 0 | 0 | 0 | 0 | 0 | 1 | 0 | 1 | 0 | 1 | 0 | 0 | 1 | 4
6 | CC1(C)S[C@@H]2[C@H](NC(=O)C(C(=O)Oc3ccc4c(c3)CCC4)c3ccccc3)C(=O)N2[C@H]1C(=O)[O-].[Na+] (some centres not stated) [CARBENICILLIN INDANYL SODIUM] | 0 | 0 | 0 | 0 | 0 | 0 | 0 | 0 | 0 | 0 | 0 | 0 | 0 | 0
7 | CC1(C)S[C@@H]2[C@H](NC(=O)C(C(=O)O)c3ccccc3)C(=O)N2[C@H]1C(=O)O (some centres not stated) [CARBENICILLIN] | 0 | 0 | 0 | 0 | 0 | 0 | 0 | 0 | 0 | 0 | 0 | 0 | 0 | 0
8 | CN(C)CCOC(c1ccc(Cl)cc1)c1ccccn1 (configuration not stated) [CARBINOXAMINE] | 0 | 0 | 0 | 0 | 0 | 0 | 0 | 0 | 0 | 0 | 0 | 0 | 0 | 0
9 | CCCC(C)(COC(N)=O)COC(=O)NC(C)C (configuration not stated) [CARISOPRODOL] | 0 | 0 | 0 | 0 | 0 | 0 | 0 | 0 | 0 | 0 | 0 | 0 | 0 | 0
10 | O=NN(CCCl)C(=O)NCCCl [CARMUSTINE] | 0 | 0 | 0 | 0 | 0 | 0 | 0 | 0 | 0 | 0 | 0 | 0 | 1 | 1
11 | C[N+](C)(C)CC(O)CC(=O)[O-] (configuration not stated) [CARNITINE] | 0 | 0 | 0 | 0 | 0 | 0 | 0 | 0 | 0 | 0 | 0 | 0 | 0 | 0
12 | CC(C)(C)NCC(O)COc1cccc2c1CCC(=O)N2 (configuration not stated) [CARTEOLOL] | 0 | 0 | 0 | 0 | 0 | 0 | 0 | 0 | 0 | 0 | 0 | 0 | 0 | 0
13 | COc1ccccc1OCCNCC(O)COc1cccc2[nH]c3ccccc3c12 (configuration not stated) [CARVEDILOL] | 1 | 0 | 0 | 0 | 0 | 0 | 0 | 0 | 0 | 0 | 0 | 0 | 0 | 1
